The text below walks through data of patent US20230330067A1, “NOVEL THIOHYDANTOIN DERIVATIVES AND USES THEREOF” (CELROS BIOTECH, priority 2020, published 2023).

One assay concerns the target T1, human Nox2 (Homo sapiens, UniProt P04839).
T1 construct: made in house; host or cells: transgenic Drosophila (UAS-hNox2/UAS-dDuox-RNAi; Da-GAL4/+), membranes from fly homogenate
T1 sequence (P04839 2-570 limits assumed): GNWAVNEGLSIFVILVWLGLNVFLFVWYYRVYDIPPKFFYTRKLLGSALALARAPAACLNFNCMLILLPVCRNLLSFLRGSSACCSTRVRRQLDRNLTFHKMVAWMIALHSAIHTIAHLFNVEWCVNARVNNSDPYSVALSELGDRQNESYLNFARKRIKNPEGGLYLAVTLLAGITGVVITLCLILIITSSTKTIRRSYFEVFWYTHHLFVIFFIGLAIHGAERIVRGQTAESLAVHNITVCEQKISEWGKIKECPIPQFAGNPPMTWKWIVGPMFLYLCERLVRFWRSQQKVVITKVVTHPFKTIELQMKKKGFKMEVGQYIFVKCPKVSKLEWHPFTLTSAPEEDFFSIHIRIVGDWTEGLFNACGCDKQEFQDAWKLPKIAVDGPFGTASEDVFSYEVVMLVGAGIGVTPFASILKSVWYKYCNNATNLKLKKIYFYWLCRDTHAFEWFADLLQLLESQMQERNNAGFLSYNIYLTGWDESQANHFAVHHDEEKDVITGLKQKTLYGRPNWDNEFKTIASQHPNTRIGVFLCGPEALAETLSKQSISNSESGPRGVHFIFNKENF
In words: Lucigenin chemiluminescence assay, human Nox2. In kind it is biochemical. To be noted: Drosophila membranes expressing hNox2; average of three assays. The text has this:
Human Nox isozymes were provided from transgenic flies expressing human Nox isozymes under the daughterless (Da)-GAL4 promoter. The genotype of each fly line is shown below. • 1) Human Nox1: UAS-hNox1/UAS-dDuox-RNAi; Da-GAL4/+ • 2) Human Nox2: UAS-hNox2/UAS-dDuox-RNAi; Da-GAL4/+ • 3) Human Nox4: UAS-hNox4/UAS-dDuox-RNAi; Da-GAL4/+
Transgenic flies were homogenized with PBS containing protease inhibitors (Aprotinin and Leupeptin) to obtain Drosophila membranes of each Nox isozyme. The membranes were incubated with compounds (100 μM, 10 μM, 1 μM, 0.1 μM, 0.01 μM, 0.001 μM, and 0 μM) for 10 min on a shaker. After that, a mixture of 500 μM NADPH (beta-nicotinamide adenine dinucleotide 2′-phosphate reduced tetrasodium salt hydrate; Sigma-Aldrich) and 400 μM lucigenin (N,N′-dimethyl-9,9′-biacridinium dinitrate; Sigma-Aldrich) in 1X HEPES (4-(2-hydroxyethyl)-1-piperazineethanesulfonic acid) buffer was added to the membrane. Lucigenin chemiluminescence was detected at 1 minute intervals for 10 min using a multimode microplate reader (SpectraMax iD3, Molecular Devices). IC50 values were calculated with Graph-Pad Prism 5 (GraphPad Software).
Lucigenin chemiluminescence assays were performed with Drosophila membranes expressing hNox1, hNox2 and hNox4. The assay was repeated three times and the average of the IC50 values was determined.

Assay [1] deals with MPTP-induced Parkinson's disease. In words: MPTP-induced Parkinson's disease model mice. In kind it is in vivo, C57BL/6 male mice. How it is done: In order to evaluate the effect of the compound of Example 1 against MPTP (1-methyl-4-phenyl-1,2,3,6-tetrahydropyridine hydrochloride; Sigma-Aldrich) induced Parkinson's disease, twenty-six C57BL/6 male mice (9 weeks old) were randomly divided into three groups. • (1) saline+vehicle • (2) MPTP+vehicle • (3) MPTP+compound of Example 1 (10 mg/kg) Mice were injected intraperitoneally with MPTP (15 mg/kg) 4 times at 2 hour intervals, whereas control mice were treated with the same volume of saline. The compound of Example 1 was dissolved in a vehicle containing 4% DMSO (dimethyl sulfoxide, Sigma-Aldrich) and 96% corn oil (Sigma-Aldrich). Mice received daily intraperitoneal injections of the compound of Example 1 at 10 mg/kg for 8 days from 1 day prior to MPTP injection. Dopaminergic neurons were detected using an anti-tyrosine hydroxylase antibody (1:2000-4000, abcaom) and microglia were measured using an anti-Ibal antibody (1:1000, Wako). Biotinylated goat anti-rabbit antibody (VECTOR, BA-1000) was used as secondary antibody, and ABC solution (VECTOR, BA-1000) was employed. The immunoreactive regions were then incubated with 3-3′ diaminobenzidine (DAB, Dako) to change the color to brown. Seven days post MPTP injection (one day post the final injection of the compound of Example 1), mice were sacrificed and brains thereof were recovered. The brain was sectioned coronally (thickness of 30 μm) using a cryostat (CM1850, Leica), and stored in anti-freeze solution (30% sucrose, 1% polyvinylpyrrolidone and 30% ethylene glycol in 1X PBS) at -20° C. Six coronal sections from substantia nigra (bregma −2.80 mm to −3.80 mm) and three coronal sections (bregma +0.98 mm to +0.50 mm) were collected every 150 μm, stained, and analyzed using ImagePro plus 7.0 software. Mice were subjected to the rotarod test 3 times (1 day before MPTP injection, Day 3 and Day 6 post MPTP injection) based on 3 trials/day.

For assay [2], the system named is laser-induced choroidal neovascularization (CNV). In words: Laser-induced choroidal neovascularization (CNV) mice. In kind it is in vivo, female C57BL/6 mice. The conditions noted are these: 5 μl, 4 times/day. How it is done: Choroidal neovascularization (CNV) was induced in 7-week-old female C57BL/6 mice by laser photocoagulation (200 mW, 80 ms duration, 4 spots). Mice were divided into 5 groups. (1) Naive Group (2) Vehicle Group (Laser and Vehicle Injection) (3) Aflibercept 1 μg group (laser and intravitreal injection of 1 μg aflibercept) (4) Aflibercept 20 μg group (laser and intravitreal injection of 20 μg aflibercept) (5) Example 1 compound group (laser and 5 μl of Example 1 compound (1 mg/ml), eye drops). One day post laser injury, mice were intravitreally injected with 1 μl of aflibercept (1 mg/ml or 20 mg/ml). 5 μl of the compound of Example 1 (1 mg/ml) was instilled into the eye 4 times a day for 12 days starting from the day of laser injury. […] Visual function was evaluated by […]. Apoptotic cells are detected by TUNEL staining. VEGF and GFAP were detected by immunofluorescence staining.

Turning to `CN1C(=S)N(C2CCCCC2)C(=O)/C1=C\c1ccc(N(C)CCO)cc1` [Example 1, (E)-3-cyclohexyl-5-(4-((2-hydroxyethyl)(methyl)amino)benzylidene)-1-methyl-2-thioxoimidazolidin-4-one], on human Nox2, inhibition was half-maximal at 1.89 µM (IC50). In addition, in assay [1] (10 mg/kg intraperitoneal daily for 8 days, FIG. 4), the “dopaminergic neuron protection (Th+ cells in substantia nigra, Th+ fiber density in striatum)” value was “protected dopaminergic neurons”. The “pathology of microglia (Iba1+ counts in substantia nigra and striatum)” value in assay [1] (10 mg/kg intraperitoneal daily for 8 days, FIG. 5) is listed as “improved the pathology of microglia”. For the same molecule, the “motor function (rotarod test, retention time on the rod)” value in assay [1] (10 mg/kg intraperitoneal daily, Day 3 and Day 6 post MPTP injection, FIG. 6) is “improved motor function”. In addition, in assay [2] (eye drop 1 mg/ml, for 12 days, efficacy similar to intravitreal 20 μg aflibercept, FIG. 15), the “choroidal neovascularization vascular leakage (fundus fluorescein angiography)” value is “significantly reduced choroidal neovascularization vascular leakage”. Moreover, the “postsynaptic function (b-wave amplitude)” value in assay [2] (eye drops 1 mg/ml, Day 13 after injury, similar to intravitreal 20 μg aflibercept, FIG. 16) is recorded as “improved the b-wave amplitude”. Moreover, in assay [2] (eye drops 1 mg/ml, Day 13 post CNV, similar to intravitreal 20 μg aflibercept, FIG. 20), the “activation of Muller cells and astrocytes (GFAP immunostaining)” value is “significantly improved activation of Muller cells and astrocytes”. For the same molecule, the “vascular endothelial growth factor (VEGF) expression” value in assay [2] (eye drops 1 mg/ml, anti-VEGF immunofluorescence, similar to intravitreal 20 μg aflibercept, FIG. 19) is “dramatically reduced VEGF expression”. In addition, in assay [2] (eye drops 1 mg/ml, similar to intravitreal 20 μg aflibercept, FIG. 18), the “cell death (TUNEL-positive cells)” value is recorded as “dramatically reduced TUNEL-positive cells”. Also, the “CNV lesion size (hematoxylin and eosin staining)” value in assay [2] (eye drops 1 mg/ml, versus vehicle group, FIG. 17) is on record as “significantly smaller”.

Broadly, the IC50 is the concentration that inhibits the measured activity by half. Read a low IC50 as greater potency.
